Experimental data reported in article PMC12154458, “High-Throughput Screens of Repurposing Hub and DOS Chemical Libraries Reveal Compounds with Novel and Potent Inhibitory Activity Against the Essential Non-Neuronal Acetylcholinesterase of Schistosoma mansoni (SmTAChE)” (International Journal of Molecular Sciences, 2025).
Read-outs that look alike come from different tables or passages of the source.

Columns and labels:
rSmTAChE [1] = molecular target: T1, rSmTAChE (Schistosoma mansoni, UniProt A0A3Q0KMM5); type: biochemical; conditions: for IC50: read-out: qAC50 (IC50), rSmTAChE;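 on Inhibition (%) (Average): mostly 20 µM final but a few compounds at 5 or 10 µM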;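 on Inhibition (%) Replicate A: mostly 20 µM final but a few compounds at 5 or 10 µM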;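 on Inhibition (%) Replicate B: mostly 20 µM final but a few compounds at 5 or 10 µM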
rSmTAChE [2] = molecular target: T1, rSmTAChE; test: biochemical
[3] = molecular target: recombinant human acetylcholinesterase, rHsAChE (Homo sapiens, UniProt P22303); test: biochemical
[4] = read-out: qAC50 (IC50), rHsAChE

T1 sequence (A0A3Q0KMM5 27-661 limits assumed): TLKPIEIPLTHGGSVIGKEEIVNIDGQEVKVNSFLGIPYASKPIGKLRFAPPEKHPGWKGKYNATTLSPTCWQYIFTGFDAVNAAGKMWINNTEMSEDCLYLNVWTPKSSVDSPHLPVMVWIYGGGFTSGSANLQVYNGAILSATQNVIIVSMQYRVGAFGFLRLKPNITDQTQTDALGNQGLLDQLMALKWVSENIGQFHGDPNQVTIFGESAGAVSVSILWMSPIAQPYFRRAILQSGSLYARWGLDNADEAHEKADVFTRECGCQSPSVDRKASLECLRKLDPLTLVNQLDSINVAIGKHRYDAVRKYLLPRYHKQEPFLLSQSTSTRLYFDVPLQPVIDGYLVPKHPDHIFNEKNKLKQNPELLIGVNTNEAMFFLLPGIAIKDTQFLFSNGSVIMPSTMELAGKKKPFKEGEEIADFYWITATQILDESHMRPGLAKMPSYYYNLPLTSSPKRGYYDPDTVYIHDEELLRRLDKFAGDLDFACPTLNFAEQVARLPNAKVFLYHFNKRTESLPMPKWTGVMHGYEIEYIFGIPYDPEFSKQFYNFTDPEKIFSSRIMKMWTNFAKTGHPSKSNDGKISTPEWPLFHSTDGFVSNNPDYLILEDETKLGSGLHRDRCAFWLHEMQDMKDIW
Sequence of recombinant human acetylcholinesterase, rHsAChE (P22303 32-614): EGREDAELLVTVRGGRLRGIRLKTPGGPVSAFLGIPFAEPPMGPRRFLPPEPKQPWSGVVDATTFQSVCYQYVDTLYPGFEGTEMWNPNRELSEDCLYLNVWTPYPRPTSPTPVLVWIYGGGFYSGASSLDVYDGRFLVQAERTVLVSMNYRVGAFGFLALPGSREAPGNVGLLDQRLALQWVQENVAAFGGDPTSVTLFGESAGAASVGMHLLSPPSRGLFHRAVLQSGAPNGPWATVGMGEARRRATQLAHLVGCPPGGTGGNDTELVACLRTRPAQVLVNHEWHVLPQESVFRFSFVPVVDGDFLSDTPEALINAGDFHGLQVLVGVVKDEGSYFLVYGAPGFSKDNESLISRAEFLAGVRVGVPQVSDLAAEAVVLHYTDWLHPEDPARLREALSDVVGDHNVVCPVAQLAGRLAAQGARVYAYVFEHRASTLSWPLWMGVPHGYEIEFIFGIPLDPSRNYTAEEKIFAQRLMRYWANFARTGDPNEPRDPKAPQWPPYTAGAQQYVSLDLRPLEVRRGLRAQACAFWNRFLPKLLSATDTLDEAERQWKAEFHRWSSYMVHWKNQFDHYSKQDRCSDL

SMILES	Data Mode (curve class), rSmTAChE (rSmTAChE [1])	Inhibition (%) (Average) (rSmTAChE [2])	Inhibition (%) Replicate A (rSmTAChE [2]) [%]	Inhibition (%) Replicate B (rSmTAChE [2]) [%]	Data Mode (curve class), rHsAChE [3]	rSmTAChE Data Mode (rSmTAChE [1])	rHsAChE Data Mode [3]	IC50 (rSmTAChE [1]) [µM]	IC50 [3, 4] [µM]	SI (Hs/Sm) (rSmTAChE [1])	inhibition at 20 µM (rSmTAChE [2]; read-out: rSmTAChE HTS Inhibition (Ave, %)) [%]	IC50 ([3]; Table 2, DOS-A library, Inactive = inactive at the maximum tested concentration (40 µM), read-out: IC50 (µM) rHsAChE) [µM]	IC50 ([3]; Table S4, DOS-A (IC50 values; qAC50), read-out: rHsAChE qAC50) [µM]	rHsAChE Data Mode ([3]; dose response curve classification, Table S4, DOS-A)
O=C(NCCCCN1CCN(c2cccc(Cl)c2Cl)CC1)c1ccc2c(c1)Cc1ccccc1-2 [BRD-K05181084-003-04-5]	inactive	62.08	63.93	60.23	inactive									
COc1ccc(NC(=O)Nc2ccc3c(c2)[C@@H]2C[C@H](CC(=O)NCc4ccccc4F)O[C@@H](CO)[C@@H]2O3)cc1 [BRD-K05329107-001-01-3]		62.78	63.88	61.69		inactive	decreasing (weakly active)							
COC(=O)N[C@H](C(=O)N1CC2(CC2)C[C@H]1c1ncc(-c2ccc3c(c2)C(F)(F)c2cc(-c4ccc5nc([C@@H]6[C@H]7CC[C@H](C7)N6C(=O)[C@@H](NC(=O)OC)C(C)C)[nH]c5c4)ccc2-3)[nH]1)C(C)C [BRD-K05446112-001-01-8]	decreasing (weakly active)	66.27	67.15	65.39	inactive			> 38						
CCCCc1oc2ccc(NS(C)(=O)=O)cc2c1C(=O)c1ccc(OCCCN(CCCC)CCCC)cc1 [BRD-K05524748-003-04-4]	decreasing (weakly active)	75.77	74.52	77.02	decreasing (weakly active)			> 38	> 38					
COC(=O)/C=C/c1cccc(N(Cc2ccc(-c3ccc(N(C)C)cc3)cc2)C(=O)C2CCCCC2)c1 [BRD-K08864679-001-02-2]	inactive	67.27	71.08	63.46	inactive									
COc1ccc(C#Cc2ccc3c(c2)O[C@@H](CN(C)S(=O)(=O)c2ccccc2F)[C@@H](C)CN([C@@H](C)CO)S3(=O)=O)cc1 [BRD-K10241968-001-01-1]		63.03	63.23	62.84		inactive	inactive							
Cc1c(C(=O)NN2CCCCC2)nn(-c2ccc(Cl)cc2Cl)c1-c1ccc(Cl)cc1 [BRD-K13296708-001-05-8]	decreasing (weakly active)	75.13	74.54	75.71	inactive			> 38						
CC(=O)c1cc([N+](=O)[O-])c(Sc2cccc(Cl)c2Cl)s1 [BRD-K13606314-001-01-3]	inactive	73.95	72.57	75.33	decreasing (weakly active)				> 38					
COc1ccc(C#Cc2ccc3c(c2)O[C@H](CN(C)S(=O)(=O)c2ccccc2F)[C@H](C)CN([C@H](C)CO)S3(=O)=O)cc1 [BRD-K13781734-001-02-4]		66.73	61.49	71.97		decreasing (weakly active)	inactive							
COc1ccc(C#Cc2ccc3c(c2)O[C@H](CN(C)S(=O)(=O)c2ccccc2F)[C@@H](C)CN([C@@H](C)CO)S3(=O)=O)cc1 [BRD-K14241686-001-01-8]		69.92	70.53	69.31		decreasing (weakly active)	inactive							
O=C(C[C@@H]1C[C@@H]2c3cc(NC(=O)NC4CCCC4)ccc3O[C@@H]2[C@H](CO)O1)NCc1ccccc1F [BRD-K14652476-001-01-0]		84.81	85.09	84.52		inactive	inactive							
CSc1cc2c(cc1C(F)(F)F)N(C(=O)Nc1cccnc1)CC2 [BRD-K14807180-001-02-5]	inactive	86.29	87.94	84.63	inactive									
Cc1cc(SCc2sc(-c3ccc(C(F)(F)F)cc3)nc2C)ccc1OCC(=O)O [BRD-K14880289-001-03-0]	decreasing	75.45	71.99	78.91	decreasing			16.4	10.5					
COc1ccc(NC(=O)Nc2ccc3c(c2)[C@@H]2C[C@H](CC(=O)NCC4CC4)O[C@@H](CO)[C@@H]2O3)cc1 [BRD-K17285234-001-01-9]		89.37	90.41	88.34		decreasing (weakly active)	inactive							
CCCCc1oc2ccccc2c1C(=O)c1cc(I)c(OCCN(CC)CC)c(I)c1 [BRD-K17561142-003-35-8]	decreasing (weakly active)	69.46	66.24	72.67	decreasing (weakly active)			> 38	> 38					
C[C@H](NC(=O)C[C@H]1C[C@H]2c3cc(NC(=O)Nc4ccc(C(F)(F)F)cc4)ccc3O[C@H]2[C@H](CO)O1)c1ccccc1 [BRD-K17686770-001-01-8]		68.45	70.27	66.63		decreasing (weakly active)	inactive							
O=C(C[C@H]1C[C@H]2c3cc(NC(=O)Nc4ccc(C(F)(F)F)cc4)ccc3O[C@H]2[C@@H](CO)O1)NC1CCCCC1 [BRD-K18925241-001-01-0]		70.28	62.39	78.17		decreasing (weakly active)	inactive							
CC(C)(C)[S@@+]([O-])N1Cc2cc(C(=O)N3CCCCC3)nc(-c3cccc(-c4ccccc4F)c3)c2[C@H]1CCO [BRD-K19167425-001-01-6]		62.31	62.60	62.02		decreasing (weakly active)	inactive							
CCCC[C@@H](CC)COC(=O)/C=C/c1ccc(OC)cc1 [BRD-K19972289-001-01-4]	inactive	64.81	66.96	62.66	decreasing				25.7					
CC(C)(C#N)c1ccc(N2C(=O)OCc3cnc4ccc(-c5cnc6ccccc6c5)cc4c32)cc1 [BRD-K24556407-001-02-3]	inactive	72.65	73.71	71.58	inactive									
O=C(Nc1ccc(Cl)cc1)Nc1ccc(Cl)c(Cl)c1 [BRD-K25029121-001-05-8]	inactive	85.20	84.59	85.82	decreasing (weakly active)				> 38					
CCOc1nc2cccc(C(=O)OCc3oc(=O)oc3C)c2n1Cc1ccc(-c2ccccc2-c2noc(=O)[nH]2)cc1 [BRD-K25723200-001-03-5]	decreasing	67.00	73.36	60.64	decreasing (weakly active)			11.6	> 12					
COc1ccc(C(Cl)=C(c2ccc(OC)cc2)c2ccc(OC)cc2)cc1 [BRD-K27062708-001-23-1]	inactive	64.11	62.61	65.61	decreasing (weakly active)				> 38					
COc1ccc(NC(=O)Nc2ccc3c(c2)[C@@H]2C[C@H](CC(=O)NCc4ccc5c(c4)OCO5)O[C@@H](CO)[C@@H]2O3)cc1 [BRD-K27599706-001-01-0]		78.59	80.15	77.03		decreasing (weakly active)	decreasing (weakly active)							
COc1ccccc1-c1cccc(-c2nc(C(=O)NCc3ccncc3)cc3c2[C@@H](CCO)N([S@+]([O-])C(C)(C)C)C3)c1 [BRD-K32310489-001-03-4]		64.60	65.31	63.89		decreasing (weakly active)	inactive							
COc1cccc(C#Cc2ccc([C@@H]3[C@@H](C#N)N(C(=O)c4ccccn4)[C@H]3CO)cc2)c1 [BRD-K32986110-001-01-2, (2S,3R,4R)-4-(hydroxymethyl)-3-[4-[2-(3-methoxyphenyl)ethynyl]phenyl]-1-[oxo(2-pyridinyl)methyl]-2-azetidinecarbonitrile]						decreasing				1.1	71.4	31.2	31.3	decreasing
